In PubChem BioAssay AID248 (DTP/NCI, 2004):
Inconclusive results and toxic doses are left out. No stated cut-off is given here; in the data, active means T/C of 150% or more; inactive means T/C below 125%.

Tested on: L1210 leukemia ip in BDF1 mice, survival T/C
Assay: NCI In Vivo Anticancer Drug Screen. Data for tumor model L1210 Leukemia (intraperitoneal) in B6D2F1 (BDF1) mice
Conditions: endpoint: mean survival time, higher = longer survival
Method in brief: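 Tumor cells were implanted, animals were treated, and survival was followed. The result divides the treated measurement by the vehicle-control measurement.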

[1] = dose: 75.0 mg/kg/injection, schedule: Q01DX001 (ip), vehicle: other
[2] = dose: 150.0 mg/kg/injection, schedule: Q01DX001 (ip), vehicle: other
[3] = dose: 300.0 mg/kg/injection, schedule: Q01DX001 (ip), vehicle: other
[4] = dose: 100.0 mg/kg/injection, schedule: Q01DX001 (ip), vehicle: saline
[5] = dose: 200.0 mg/kg/injection, schedule: Q01DX001 (ip), vehicle: saline
[6] = dose: 400.0 mg/kg/injection, schedule: Q01DX001 (ip), vehicle: saline
[7] = dose: 100.0 mg/kg/injection, schedule: Q01DX009 (ip), vehicle: Klucel (hydroxypropylcellulose) (HPC)
[8] = dose: 100.0 mg/kg/injection, schedule: Q04DX003 (ip), vehicle: Klucel (hydroxypropylcellulose) (HPC)
[9] = dose: 100.0 mg/kg/injection, schedule: Q04DX003 (ip), vehicle: saline with Tween-80
[10] = dose: 200.0 mg/kg/injection, schedule: Q01DX009 (ip), vehicle: Klucel (hydroxypropylcellulose) (HPC)
[11] = dose: 200.0 mg/kg/injection, schedule: Q04DX003 (ip), vehicle: saline with Tween-80
[12] = dose: 400.0 mg/kg/injection, schedule: Q01DX009 (ip), vehicle: Klucel (hydroxypropylcellulose) (HPC)
[13] = dose: 400.0 mg/kg/injection, schedule: Q04DX003 (ip), vehicle: Klucel (hydroxypropylcellulose) (HPC)
[14] = dose: 400.0 mg/kg/injection, schedule: Q04DX003 (ip), vehicle: saline with Tween-80
[15] = dose: 100.0 mg/kg/injection, schedule: Q04DX002 (ip), vehicle: Klucel (hydroxypropylcellulose) (HPC)
[16] = dose: 200.0 mg/kg/injection, schedule: Q04DX002 (ip), vehicle: Klucel (hydroxypropylcellulose) (HPC)
[17] = dose: 400.0 mg/kg/injection, schedule: Q04DX002 (ip), vehicle: Klucel (hydroxypropylcellulose) (HPC)
[18] = dose: 200.0 mg/kg/injection, schedule: Q04DX003 (ip), vehicle: Klucel (hydroxypropylcellulose) (HPC)
[19] = dose: 100.0 mg/kg/injection, schedule: Q01DX009 (ip), vehicle: saline with Tween-80
[20] = dose: 200.0 mg/kg/injection, schedule: Q01DX009 (ip), vehicle: saline with Tween-80
[21] = dose: 400.0 mg/kg/injection, schedule: Q01DX009 (ip), vehicle: saline with Tween-80
[22] = dose: 100.0 mg/kg/injection, schedule: Q04DX003 (ip), vehicle: saline
[23] = dose: 200.0 mg/kg/injection, schedule: Q04DX003 (ip), vehicle: saline

Measured: T/C

Ic1ccccc1CNCCc1ccccc1
inactive: [1] 93 % of control | [2] 96 % of control | [3] 96 % of control

Cc1ccc([N+](=O)[O-])cc1CN(CCO)CCO
inactive: [4] 101 % of control | [5] 95 % of control | [6] 98 % of control

COc1cc([N+](=O)[O-])ccc1NC(=O)Nc1cccc(C(F)(F)F)c1
inactive: dose: 100.0 mg/kg/injection, schedule: Q01DX009 (ip), vehicle: gum acacia 92 % of control | dose: 200.0 mg/kg/injection, schedule: Q01DX009 (ip), vehicle: gum acacia 92 % of control

Nc1cc(Br)cc2c1-c1ccc(Br)cc1C2
inactive: dose: 50.0 mg/kg/injection, schedule: Q01DX001 (ip), vehicle: carboxymethylcellulose (CMC) 107 % of control | dose: 100.0 mg/kg/injection, schedule: Q01DX001 (ip), vehicle: carboxymethylcellulose (CMC) 104 % of control | dose: 200.0 mg/kg/injection, schedule: Q01DX001 (ip), vehicle: carboxymethylcellulose (CMC) 96 % of control | dose: 400.0 mg/kg/injection, schedule: Q01DX001 (ip), vehicle: carboxymethylcellulose (CMC) 102 % of control

Nc1ccnc(C(F)(F)F)n1
inactive: dose: 50.0 mg/kg/injection, schedule: Q01DX Z (ip), vehicle: methylcellulose (MC) 93 % of control | dose: 100.0 mg/kg/injection, schedule: Q01DX Z (ip), vehicle: methylcellulose (MC) 90 % of control

CCCCCC(Br)C(Br)CC(Br)C(Br)CCCCCCCC(=O)O (stereo unspecified)
inactive: [7] 95 % of control | [8] 98 % of control | [9] 98 % of control | [10] 90 % of control | [11] 97 % of control | [12] 93 % of control | [13] 93 % of control | [14] 91 % of control

c1coc(CNc2ncnc3nc[nH]c23)c1
inactive: [1] 92 % of control | dose: 75.0 mg/kg/injection, schedule: Q01DX009 (ip), vehicle: Klucel (hydroxypropylcellulose) (HPC) 103 % of control | [2] 98 % of control | dose: 150.0 mg/kg/injection, schedule: Q01DX009 (ip), vehicle: Klucel (hydroxypropylcellulose) (HPC) 97 % of control | [3] 97 % of control | dose: 300.0 mg/kg/injection, schedule: Q01DX009 (ip), vehicle: Klucel (hydroxypropylcellulose) (HPC) 106 % of control

OCCC#CCCCOC1CCCCO1 (stereo unspecified)
inactive: [15] 105 % of control | [16] 90 % of control | [17] 93 % of control

O=C1C(C2OC2c2ccccc2)CCCC1C1OC1c1ccccc1 (stereo unspecified)
inactive: dose: 100.0 mg/kg/injection, schedule: Q01DX009 (ip), vehicle: saline sonified 94 % of control | [8] 97 % of control | dose: 200.0 mg/kg/injection, schedule: Q01DX009 (ip), vehicle: saline sonified 97 % of control | [18] 98 % of control | dose: 400.0 mg/kg/injection, schedule: Q01DX009 (ip), vehicle: saline sonified 103 % of control | [13] 97 % of control

COc1ccc(NC(=O)Oc2ccc3ccccc3c2)c(OC)c1
inactive: [15] 97 % of control | [16] 111 % of control | [17] 104 % of control

N#Cc1ccc(-c2ccccc2)cc1
inactive: dose: 50.0 mg/kg/injection, schedule: Q04DX002 (ip), vehicle: other 103 % of control | dose: 100.0 mg/kg/injection, schedule: Q04DX002 (ip), vehicle: other 95 % of control | dose: 200.0 mg/kg/injection, schedule: Q04DX002 (ip), vehicle: other 117 % of control

CCOC(=O)CN=C(C)OCC
inactive: [19] 100 % of control | [9] 107 % of control | [20] 99 % of control | [11] 97 % of control | [21] 90 % of control | [14] 103 % of control

COC1/C=C/OC2(C)Oc3c(C)c(O)c4c(O)c(c(/C=N/N5C(C)CN(Cc6ccccc6)CC5C)c(O)c4c3C2=O)NC(=O)C(C)=C/C=C/C(C)C(O)C(C)C(O)C(C)C(OC(C)=O)C1C (stereo unspecified)
inactive: dose: 50.0 mg/kg/injection, schedule: Q01DX009 (ip), vehicle: Klucel (hydroxypropylcellulose) (HPC) 91 % of control | [7] 93 % of control

O=C1c2ccccc2C(=O)N1CNc1ccccc1Cl
inactive: [19] 93 % of control | dose: 100.0 mg/kg/injection, schedule: Q04DX002 (ip), vehicle: saline with Tween-80 98 % of control | [20] 93 % of control | dose: 200.0 mg/kg/injection, schedule: Q04DX002 (ip), vehicle: saline with Tween-80 91 % of control | [21] 100 % of control | dose: 400.0 mg/kg/injection, schedule: Q04DX002 (ip), vehicle: saline with Tween-80 88 % of control

COc1ccc(OC)c(/C=C(/C)[N+](=O)[O-])c1
inactive: dose: 50.0 mg/kg/injection, schedule: Q01DX009 (ip), vehicle: saline with Tween-80 109 % of control | [19] 109 % of control | [8] 97 % of control | [20] 109 % of control | [18] 108 % of control

c1ccc(CC(Cc2ccccc2)=[N+]2CCCC2)cc1
inactive: dose: 100.0 mg/kg/injection, schedule: Q01DX009 (ip), vehicle: saline 91 % of control | [22] 104 % of control | dose: 200.0 mg/kg/injection, schedule: Q01DX009 (ip), vehicle: saline 92 % of control | [23] 98 % of control | dose: 400.0 mg/kg/injection, schedule: Q01DX009 (ip), vehicle: saline 101 % of control | dose: 400.0 mg/kg/injection, schedule: Q04DX003 (ip), vehicle: saline 105 % of control

CCOc1ccc(-n2c(C)nc3ccccc3c2=O)cc1CNCCBr
inactive: dose: 50.0 mg/kg/injection, schedule: Q01DX001 (ip), vehicle: saline 103 % of control | [4] 111 % of control | [5] 111 % of control

OC(Cc1cc(CC(O)(C(F)(F)F)C(F)(F)F)ncn1)(C(F)(F)F)C(F)(F)F
inactive: [19] 108 % of control | [20] 97 % of control | [21] 97 % of control

C=CCN(CC=C)P(=O)(N(CC=C)CC=C)N1CC1
active: dose: 3.0 mg/kg/injection, schedule: Q01DX015 (ip), vehicle: saline 151 % of control | dose: 5.0 mg/kg/injection, schedule: Q01DX015 (ip), vehicle: saline 155 % of control | dose: 7.0 mg/kg/injection, schedule: Q01DX015 (ip), vehicle: saline 173 % of control | dose: 11.0 mg/kg/injection, schedule: Q01DX015 (ip), vehicle: saline 178 % of control | [4] 175 % of control
inactive: dose: 5.0 mg/kg/injection, schedule: Q01DX001 (ip), vehicle: saline 117 % of control | dose: 10.0 mg/kg/injection, schedule: Q01DX001 (ip), vehicle: saline 117 % of control

Oc1ccc(Cl)cc1N=Cc1ccccc1
inactive: [4] 100 % of control | [5] 105 % of control | [6] 107 % of control

O=C1OC(c2ccc([N+](=O)[O-])cc2)=N/C1=C\c1ccc(O)cc1
inactive: [7] 96 % of control | [10] 96 % of control | [12] 90 % of control

CCCCSc1nc2ccc([N+](=O)[O-])cc2s1
inactive: dose: 100.0 mg/kg/injection, schedule: Q04DX002 (ip), vehicle: gum acacia 95 % of control | dose: 200.0 mg/kg/injection, schedule: Q04DX002 (ip), vehicle: gum acacia 95 % of control | dose: 400.0 mg/kg/injection, schedule: Q04DX002 (ip), vehicle: gum acacia 95 % of control

Cn1nc2c(c1-c1ccc(O)cc1)CCCc1ccccc1-2
inactive: [8] 100 % of control | [18] 98 % of control | [13] 98 % of control

CC1(CCC(=O)O)SCSCS1
inactive: [8] 97 % of control | [18] 90 % of control | [13] 92 % of control

CCC1N(C)CCCN1C
inactive: [9] 97 % of control | [11] 95 % of control

COc1ccc(CCN=C2C3CC4CC(C3)CC2C4)cc1OC
inactive: [4] 98 % of control | [5] 98 % of control | [6] 103 % of control

O=C(NO)c1ccccc1F
inactive: [4] 97 % of control | [5] 110 % of control | [6] 93 % of control

CC(=O)N1CCC(CC(O)Cc2ccnc3ccccc23)CC1 (stereo unspecified)
inactive: [22] 97 % of control | [23] 97 % of control
